Source: patent US12378224B2 (Dong-A Socio Holdings Co., Ltd., priority 2016, dated 2025)
Like-named read-outs stand apart in the source and are kept apart here.

How the values were obtained:
[1] = molecular target: BCR fusion to kinase domain of MerTK (Ba/F3-MerTK) (Homo sapiens, UniProt Q12866); test: In Cell TAM Kinase Assay Using BaF3 Cellular System; assay type: cell-based, murine; conditions: Ba/F3 BCR-kinase fusion proliferation, 72 hours, Cell Titer Glo, kinase not given
Description: Three Ba/F3 cell lines (a murine IL-3 dependent pro-B cell line) expressing BCR fusions to the kinase domains of either MerTK (Ba/F3-MerTK), Axl (Ba/F3-Axl), or Tyro3 (Ba/F3-Tyro3) were purchased from Advanced Cellular Dynamics. The IL-3 independence of all 3 cell lines was confirmed. After thawing, the 3 Ba/F3 cell lines were split and maintained in cell culture media, which consisted of RPMI-1640-HEPES (Thermo-Cat #22400-089) with 1× Glutamax (Thermo-Cat #35050-061) and 10% FBS (Sigma-Cat #F4135 (500 ml), at a cell density range of 0.05×10^6−1×10^6 cells/mL 4 days before used in the routine screen. Compound plates were prepared using Nunc™ white 384-well optical bottom plates (ThermoFisher, USA) with compound in 25 nL dimethyl sulfoxide in each well. For routine assays, each of the 3 Ba/F3 cell lines was seeded at 1,000 cells per well with 25 µL of cell culture media directly into 384-well compound plates and incubated for 72 hours. Cell proliferation was then measured by adding 25 μL of Cell Titer Glo 2.0 (Promega, USA). After incubating with Cell Titer Glo at room temperature for 30 mins, the luminescence intensity, which quantifies the cell viability, was measured using an Envision™ plate reader (PerkinElmer, USA). […] In the presence of IL-3, the proliferation of the Ba/F3-Tyro3 cells is no longer dependent on the Tyro3 kinase activity.

human MER (528-end) = human MER (528-end) (Homo sapiens (Human), UniProt Q12866); test: HTRF Kinase Activity Biochemical Assay (KinEASE-TK); conditions: 10 uM ATP
Outline: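 Recombinant human MER (528-end) phosphorylated biotin-TK peptide substrate, 1 h at room temperature. Reaction stopped with detection buffer containing 0.375 nM Eu3+-cryptate anti-TK antibody and 0.062 uM streptavidin-XL665, 1 h further. Activity taken as HTRF ratio 665/620 nm ×10,000, 340 nm excitation.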

Sequence of human MER (528-end) (Q12866 528-999 limits assumed): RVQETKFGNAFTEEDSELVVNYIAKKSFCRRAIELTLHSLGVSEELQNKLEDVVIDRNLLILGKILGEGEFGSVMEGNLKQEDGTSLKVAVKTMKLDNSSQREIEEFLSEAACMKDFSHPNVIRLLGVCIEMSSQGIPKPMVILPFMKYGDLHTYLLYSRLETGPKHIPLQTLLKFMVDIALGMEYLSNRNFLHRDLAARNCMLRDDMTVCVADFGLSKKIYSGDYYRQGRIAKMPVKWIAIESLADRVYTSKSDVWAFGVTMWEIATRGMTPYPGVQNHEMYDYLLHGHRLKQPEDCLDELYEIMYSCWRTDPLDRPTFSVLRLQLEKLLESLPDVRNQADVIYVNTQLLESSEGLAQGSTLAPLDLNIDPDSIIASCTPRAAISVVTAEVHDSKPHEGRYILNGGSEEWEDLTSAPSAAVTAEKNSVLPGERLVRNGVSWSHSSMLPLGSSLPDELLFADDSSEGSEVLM
Sequence of BCR fusion to kinase domain of MerTK (Ba/F3-MerTK) (Q12866 21-999 limits assumed, stated change not applied): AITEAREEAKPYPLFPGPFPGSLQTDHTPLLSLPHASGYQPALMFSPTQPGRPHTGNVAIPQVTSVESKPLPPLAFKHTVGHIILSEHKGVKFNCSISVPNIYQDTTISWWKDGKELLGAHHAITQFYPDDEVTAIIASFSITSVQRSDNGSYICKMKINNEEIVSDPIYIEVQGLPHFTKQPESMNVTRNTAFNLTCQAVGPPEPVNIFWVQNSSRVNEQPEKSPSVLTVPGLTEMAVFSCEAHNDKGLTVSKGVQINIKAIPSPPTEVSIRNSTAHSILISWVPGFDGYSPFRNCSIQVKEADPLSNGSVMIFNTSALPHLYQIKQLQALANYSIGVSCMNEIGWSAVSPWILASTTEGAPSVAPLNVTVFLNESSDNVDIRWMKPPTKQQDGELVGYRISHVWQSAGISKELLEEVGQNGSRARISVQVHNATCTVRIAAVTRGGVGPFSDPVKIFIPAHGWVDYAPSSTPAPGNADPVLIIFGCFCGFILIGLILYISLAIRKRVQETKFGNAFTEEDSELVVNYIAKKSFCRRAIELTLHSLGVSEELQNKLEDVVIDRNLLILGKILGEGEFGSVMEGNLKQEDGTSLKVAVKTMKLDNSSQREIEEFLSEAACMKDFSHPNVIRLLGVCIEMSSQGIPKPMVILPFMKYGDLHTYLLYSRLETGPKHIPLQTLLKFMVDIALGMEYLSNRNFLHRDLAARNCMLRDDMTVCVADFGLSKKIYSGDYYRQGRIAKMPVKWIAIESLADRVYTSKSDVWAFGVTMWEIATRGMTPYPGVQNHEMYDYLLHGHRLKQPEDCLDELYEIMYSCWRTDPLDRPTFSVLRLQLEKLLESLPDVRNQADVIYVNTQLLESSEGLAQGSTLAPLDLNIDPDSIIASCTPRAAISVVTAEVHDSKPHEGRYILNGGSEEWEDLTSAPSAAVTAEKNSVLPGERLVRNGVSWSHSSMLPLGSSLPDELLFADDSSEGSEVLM

SMILES | IC50 ([1]; read-out: IC50) | IC50 (human MER (528-end)) | IC50 [1]
Cc1csc(-c2ccc(C(=O)N3CC[C@@H](NC(=O)c4cc(-c5cnn(C)c5)cnc4N)C3)cc2)c1 [Example 525, (R)-2-amino-5-(1-methyl-1H-pyrazol-4-yl)-N-(1-(4-(4-methylthiophen-2-yl)benzoyl)pyrrolidin-3-yl)nicotinamide] | 100 to 500 nM | 10 to 100 nM | 
Cc1ccc(-c2ccc(C(=O)N3CC[C@@H](NC(=O)c4cc(-c5cnn(C)c5)cnc4N)C3)cc2)s1 [Example 526, (R)-2-amino-5-(1-methyl-1H-pyrazol-4-yl)-N-(1-(4-(5-methylthiophen-2-yl)benzoyl)pyrrolidin-3-yl)nicotinamide] | > 1000 nM | 10 to 100 nM | 
Cn1cc(-c2cnc(N)c(C(=O)N[C@@H]3CCN(C(=O)c4ccc(-c5ccc(Cl)s5)cc4)C3)c2)cn1 [Example 534, (R)-2-amino-N-(1-(4-(5-chlorothiophen-2-yl)benzoyl)pyrrolidin-3-yl)-5-(1-methyl-1H-pyrazol-4-yl)nicotinamide] | > 1000 nM | 10 to 100 nM | 
Cn1cc(-c2cnc(N)c(C(=O)N[C@@H]3CCN(C(=O)C(=O)c4ccccc4)C3)c2)cn1 [Example 546, (R)-2-amino-5-(1-methyl-1H-pyrazol-4-yl)-N-(1-(2-oxo-2-phenylacetyl)pyrrolidin-3-yl)nicotinamide] | > 1000 nM | > 1000 nM | 
CC(C)(c1ccc(-c2cnc(N)c(C(=O)N[C@@H]3CCN(C(=O)c4ccc(-c5ccccc5)cc4)C3)c2)cc1)N1CCN(CCO)CC1 [Example 565, (R)—N -(1-([1,1′-biphenyl]-4-carbonyl)pyrrolidin-3-yl)-2-amino-5-(4-(2-(4-(2-hydroxyethyl)piperazin-1-yl)propan-2-yl)phenyl)nicotinamide] | > 1000 nM | 10 to 100 nM | 
CN1CCN(Cc2ccc(-c3cnc(N)c(C(=O)N[C@@H]4CCN(C(=O)c5ccc(-c6ccccc6)cc5)C4)c3)cc2)CC1 [Example 567, (R)—N-(1-([1,1′-biphenyl]-4-carbonyl)pyrrolidin-3-yl)-2-amino-5-(4-((4-methylpiperazin-1-yl)methyl)phenyl)nicotinamide] | > 1000 nM | 10 to 100 nM | 
Nc1ncc(-c2ccc(N3CCOCC3)nc2)cc1C(=O)N[C@@H]1CCN(C(=O)c2ccc(-c3ccc(F)cc3Cl)cc2)C1 [Example 584, (R)-6-amino-N-(1-(2′-chloro-4′-fluoro-[1,1′-biphenyl]-4-carbonyl)pyrrolidin-3-yl)-6′-morpholino-[3,3′-bipyridine]-5-carboxamide] | > 1000 nM | 10 to 100 nM | 
Nc1ncc(-c2cnn(Cc3cccnc3)c2)cc1C(=O)N[C@@H]1CCN(C(=O)c2ccc(-c3ccc(F)cc3Cl)cc2)C1 [Example 586, (R)-2-amino-N-(1-(2′-chloro-4′-fluoro-[1,1′-biphenyl]-4-carbonyl)pyrrolidin-3-yl)-5-(1-(pyridin-3-ylmethyl)-1H-pyrazol-4-yl)nicotinamide] | 500 to 1000 nM | 10 to 100 nM | 
CN1CCN(C(=O)c2ccc(-c3cnc(N)c(C(=O)N[C@@H]4CCN(C(=O)c5ccc(-c6ccccc6Cl)cc5)C4)c3)cc2)CC1 [Example 588, (R)-2-amino-N-(1-(2′-chloro-[1,1′-biphenyl]-4-carbonyl)pyrrolidin-3-yl)-5-(4-(4-methylpiperazine-1-carbonyl)phenyl)nicotinamide] | > 1000 nM | 10 to 100 nM | 
Nc1ncc(-c2ccc(C(=O)N3CCOCC3)cc2)cc1C(=O)N[C@@H]1CCN(C(=O)c2ccc(-c3ccccc3Cl)cc2)C1 [Example 590, (R)-2-amino-N-(1-(2′-chloro-[1,1′-biphenyl]-4-carbonyl)pyrrolidin-3-yl)-5-(4-(morpholine-4-carbonyl)phenyl)nicotinamide] | > 1000 nM | 10 to 100 nM | 
Nc1ncc(-c2ccc(C(=O)NC3CCOCC3)cc2)cc1C(=O)N[C@@H]1CCN(C(=O)c2ccc(-c3ccccc3Cl)cc2)C1 [Example 593, (R)-2-amino-N-(1-(2′-chloro-[1,1′-biphenyl]-4-carbonyl)pyrrolidin-3-yl)-5-(4-((tetrahydro-2H-pyran-4-yl)carbamoyl)phenyl)nicotinamide] | > 1000 nM | 10 to 100 nM | 
Cn1cc(-c2cnc(N)c(C(=O)N[C@@H]3CCN(C(=O)c4ccc(-c5ccc(Oc6ccc(CN)cc6)cc5)cc4)C3)c2)cn1 [Example 634, (R)-2-amino-N-(1-(4′-(4-(aminomethyl)phenoxy)-[1,1′-biphenyl]-4-carbonyl)pyrrolidin-3-yl)-5-(1-methyl-1H-pyrazol-4-yl)nicotinamide] | 500 to 1000 nM | < 10 nM | 
Cn1cc(-c2cnc(N)c(C(=O)N[C@@H]3CCN(C(=O)c4ccc(-c5ccc(Oc6ccc(CO)cc6)cc5)cc4)C3)c2)cn1 [Example 635, (R)-2-amino-N-(1-(4′-(4-(hydroxymethyl)phenoxy)-[1,1′-biphenyl]-4-carbonyl)pyrrolidin-3-yl)-5-(1-methyl-1H-pyrazol-4-yl)nicotinamide] | 100 to 500 nM | 10 to 100 nM | 
CN(C)Cc1ccc(Oc2ccc(-c3ccc(C(=O)N4CC[C@@H](NC(=O)c5cc(-c6cnn(C)c6)cnc5N)C4)cc3)cc2)cc1 [Example 636, (R)-2-amino-N-(1-(4′-(4-((dimethylamino)methyl)phenoxy)-[1,1′-biphenyl]-4-carbonyl)pyrrolidin-3-yl)-5-(1-methyl-1H-pyrazol-4-yl)nicotinamide] | 100 to 500 nM | 10 to 100 nM | 
CN1CCC(Cc2ccc(-c3ccc(C(=O)N4CC[C@@H](NC(=O)c5cc(-c6cnn(C)c6)cnc5N)C4)cc3)cc2)CC1 [Example 643, (R)-2-amino-5-(1-methyl-1H-pyrazol-4-yl)-N-(1-(4′-((1-methylpiperidin-4-yl)methyl)-[1,1′-biphenyl]-4-carbonyl)pyrrolidin-3-yl)nicotinamide] | > 1000 nM | 100 to 1000 nM | 
CN1CCC(N(C)c2ccc3cc(C(=O)N4CC[C@@H](NC(=O)c5cc(-c6cnn(C)c6)cnc5N)C4)ccc3c2)CC1 [Example 644, (R)-2-amino-N-(1-(6-(methyl(1-methylpiperidin-4-yl)amino)-2-naphthoyl)pyrrolidin-3-yl)-5-(1-methyl-1H-pyrazol-4-yl)nicotinamide] | 100 to 500 nM | 10 to 100 nM | 
Cc1cccc(-c2ccc(C(=O)N3CC[C@@H](NC(=O)c4cc(-c5cnn(C)c5)cnc4N)C3)cc2)c1 [Example 656, (R)-2-amino-5-(1-methyl-1H-pyrazol-4-yl)-N-(1-(3′-methyl-[1,1′-biphenyl]-4-carbonyl)pyrrolidin-3-yl)nicotinamide] | < 100 nM | 10 to 100 nM | 
CCc1cccc(-c2ccc(C(=O)N3CC[C@@H](NC(=O)c4cc(-c5cnn(C)c5)cnc4N)C3)cc2)c1 [Example 657, (R)-2-amino-N-(1-(3′-ethyl-[1,1′-biphenyl]-4-carbonyl)pyrrolidin-3-yl)-5-(1-methyl-1H-pyrazol-4-yl)nicotinamide] | 100 to 500 nM | 10 to 100 nM | 
CC(C)c1cccc(-c2ccc(C(=O)N3CC[C@@H](NC(=O)c4cc(-c5cnn(C)c5)cnc4N)C3)cc2)c1 [Example 658, (R)-2-amino-N-(1-(3′-isopropyl-[1,1′-biphenyl]-4-carbonyl)pyrrolidin-3-yl)-5-(1-methyl-1H-pyrazol-4-yl)nicotinamide] | 500 to 1000 nM | 100 to 1000 nM | 
COc1ccc(-c2ccc(C(=O)N3CC[C@@H](NC(=O)c4cc(-c5cnn(C)c5)cnc4N)C3)cc2)cc1OC [Example 659, (R)-2-amino-N-(1-(3′,4′-dimethoxy-[1,1′-biphenyl]-4-carbonyl)pyrrolidin-3-yl)-5-(1-methyl-1H-pyrazol-4-yl)nicotinamide] | > 1000 nM | 100 to 1000 nM | 
Cn1cc(-c2cnc(N)c(C(=O)N[C@@H]3CCN(C(=O)c4ccc(-c5ccc(Cl)c(F)c5)cc4)C3)c2)cn1 [Example 661, (R)-2-amino-N-(1-(4′-chloro-3′-fluoro-[1,1′-biphenyl]-4-carbonyl)pyrrolidin-3-yl)-5-(1-methyl-1H-pyrazol-4-yl)nicotinamide] | 500 to 1000 nM | 10 to 100 nM | 
Cn1cc(-c2cnc(N)c(C(=O)N[C@@H]3CCN(C(=O)c4ccc(-c5cccc(F)c5Cl)cc4)C3)c2)cn1 [Example 673, (R)-2-amino-N-(1-(2′-chloro-3′-fluoro-[1,1′-biphenyl]-4-carbonyl)pyrrolidin-3-yl)-5-(1-methyl-1H-pyrazol-4-yl)nicotinamide] | 500 to 1000 nM | 10 to 100 nM | 
Cn1cc(-c2cnc(N)c(C(=O)N[C@@H]3CCN(C(=O)c4ccc(-c5ccc(C(=O)N6CCC(=O)CC6)cc5)cc4)C3)c2)cn1 [Example 679, (R)-2-amino-5-(1-methyl-1H-pyrazol-4-yl)-N-(1-(4′-(4-oxopiperidine-1-carbonyl)-[1,1′-biphenyl]-4-carbonyl)pyrrolidin-3-yl)nicotinamide] |  | > 1000 nM | > 1000 nM
